Laboratory results taken from patent US20250114345A1, “COMPOUNDS AND COMPOSITIONS AS CBP/P300 DEGRADERS AND USES THEREOF” (Oncopia Therapeutics, Inc. d/b/a/ SK Life Science Labs, priority 2023, published 2025).

Columns and labels:
[1] = biological target: T1, p300 (Homo sapiens, UniProt Q09472); assay: P300 degradation, HiBit technology in A549 P300 HiBit cells (2 h); assay type: cell-based; details: 2 hrs post treatment; for Dmax: A549, A549 P300 HiBit cells; for DC50: A549 P300 HiBit cells
T1 construct: host or cells: A549 P300 HiBit cells
Summary of the method: (§1)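 Degradation potency and Dmax came from HiBiT luminescence in tagged A549 cells treated with serially diluted compound (DMSO stocks at 10 mM) after overnight equilibration in F-12K with 10% heat-inactivated FBS.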

[2] = biological target: T2, CBP (Homo sapiens, UniProt Q92793); assay: CBP degradation, HiBit technology in A549 CBP HiBit cells (24 h); assay type: cell-based; details: 24 hrs post treatment
T2 construct: host or cells: A549 CBP HiBit cells
Summary of the method: as §1

T2 sequence (Q92793 whole entry): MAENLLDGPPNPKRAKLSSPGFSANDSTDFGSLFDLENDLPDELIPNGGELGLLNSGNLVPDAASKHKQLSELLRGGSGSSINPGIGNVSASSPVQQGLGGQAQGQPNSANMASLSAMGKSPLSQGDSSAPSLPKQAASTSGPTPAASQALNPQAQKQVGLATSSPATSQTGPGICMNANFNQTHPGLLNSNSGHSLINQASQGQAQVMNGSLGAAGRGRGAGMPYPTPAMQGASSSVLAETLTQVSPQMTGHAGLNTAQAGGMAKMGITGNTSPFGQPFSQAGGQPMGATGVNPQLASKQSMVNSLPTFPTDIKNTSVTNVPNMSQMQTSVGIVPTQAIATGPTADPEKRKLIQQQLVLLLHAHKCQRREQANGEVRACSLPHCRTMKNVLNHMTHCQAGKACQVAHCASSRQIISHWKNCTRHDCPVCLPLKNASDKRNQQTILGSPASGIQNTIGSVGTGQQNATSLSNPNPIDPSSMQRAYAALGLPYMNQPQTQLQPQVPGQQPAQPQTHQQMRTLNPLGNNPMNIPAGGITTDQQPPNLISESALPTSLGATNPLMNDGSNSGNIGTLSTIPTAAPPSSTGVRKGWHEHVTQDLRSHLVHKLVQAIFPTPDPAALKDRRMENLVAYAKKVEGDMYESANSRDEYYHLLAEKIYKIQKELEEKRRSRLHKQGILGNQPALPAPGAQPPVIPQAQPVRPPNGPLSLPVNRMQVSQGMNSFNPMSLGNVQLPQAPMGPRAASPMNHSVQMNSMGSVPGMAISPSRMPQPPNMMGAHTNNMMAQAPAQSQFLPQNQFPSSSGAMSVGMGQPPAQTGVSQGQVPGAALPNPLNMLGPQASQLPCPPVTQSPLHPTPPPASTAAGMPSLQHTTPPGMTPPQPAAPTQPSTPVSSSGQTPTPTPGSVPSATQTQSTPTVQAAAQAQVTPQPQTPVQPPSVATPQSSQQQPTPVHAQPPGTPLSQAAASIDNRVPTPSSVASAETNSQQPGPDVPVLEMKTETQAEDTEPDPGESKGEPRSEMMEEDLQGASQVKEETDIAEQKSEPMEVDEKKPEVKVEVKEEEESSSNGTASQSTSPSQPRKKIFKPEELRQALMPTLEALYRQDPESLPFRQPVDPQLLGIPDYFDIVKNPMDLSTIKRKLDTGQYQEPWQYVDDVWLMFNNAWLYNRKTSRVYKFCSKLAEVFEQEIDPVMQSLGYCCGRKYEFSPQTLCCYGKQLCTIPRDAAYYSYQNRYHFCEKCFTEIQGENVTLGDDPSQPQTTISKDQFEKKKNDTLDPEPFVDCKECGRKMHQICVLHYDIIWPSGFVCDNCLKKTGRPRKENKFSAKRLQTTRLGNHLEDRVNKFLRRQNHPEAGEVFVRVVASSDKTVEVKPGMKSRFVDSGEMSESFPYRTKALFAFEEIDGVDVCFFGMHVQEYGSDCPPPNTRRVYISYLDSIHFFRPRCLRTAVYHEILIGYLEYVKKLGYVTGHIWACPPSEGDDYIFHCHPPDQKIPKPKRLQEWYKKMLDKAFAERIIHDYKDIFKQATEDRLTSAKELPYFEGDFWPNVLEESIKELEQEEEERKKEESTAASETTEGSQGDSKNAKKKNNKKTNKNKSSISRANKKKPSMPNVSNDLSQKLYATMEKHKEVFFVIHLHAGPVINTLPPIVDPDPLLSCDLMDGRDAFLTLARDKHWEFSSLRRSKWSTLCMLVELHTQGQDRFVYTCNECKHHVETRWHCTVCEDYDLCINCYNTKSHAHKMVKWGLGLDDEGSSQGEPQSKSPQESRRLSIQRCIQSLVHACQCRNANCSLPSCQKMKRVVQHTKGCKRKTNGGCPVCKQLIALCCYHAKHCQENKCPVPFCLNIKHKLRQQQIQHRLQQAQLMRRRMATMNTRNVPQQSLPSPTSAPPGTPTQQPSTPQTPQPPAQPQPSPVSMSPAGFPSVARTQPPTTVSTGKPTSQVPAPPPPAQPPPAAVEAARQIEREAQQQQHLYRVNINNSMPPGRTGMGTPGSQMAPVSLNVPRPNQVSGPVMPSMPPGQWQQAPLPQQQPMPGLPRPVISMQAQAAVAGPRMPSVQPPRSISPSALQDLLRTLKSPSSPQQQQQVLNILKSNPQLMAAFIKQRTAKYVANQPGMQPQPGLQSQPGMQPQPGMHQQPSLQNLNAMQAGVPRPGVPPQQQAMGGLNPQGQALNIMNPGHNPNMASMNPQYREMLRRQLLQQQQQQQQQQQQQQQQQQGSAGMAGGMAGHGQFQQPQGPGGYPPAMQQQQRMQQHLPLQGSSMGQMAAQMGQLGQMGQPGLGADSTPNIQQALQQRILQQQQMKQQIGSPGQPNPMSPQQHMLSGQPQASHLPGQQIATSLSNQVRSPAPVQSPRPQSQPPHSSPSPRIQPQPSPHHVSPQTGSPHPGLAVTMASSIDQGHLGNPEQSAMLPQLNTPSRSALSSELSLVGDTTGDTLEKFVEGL
T1 sequence (Q09472 whole entry): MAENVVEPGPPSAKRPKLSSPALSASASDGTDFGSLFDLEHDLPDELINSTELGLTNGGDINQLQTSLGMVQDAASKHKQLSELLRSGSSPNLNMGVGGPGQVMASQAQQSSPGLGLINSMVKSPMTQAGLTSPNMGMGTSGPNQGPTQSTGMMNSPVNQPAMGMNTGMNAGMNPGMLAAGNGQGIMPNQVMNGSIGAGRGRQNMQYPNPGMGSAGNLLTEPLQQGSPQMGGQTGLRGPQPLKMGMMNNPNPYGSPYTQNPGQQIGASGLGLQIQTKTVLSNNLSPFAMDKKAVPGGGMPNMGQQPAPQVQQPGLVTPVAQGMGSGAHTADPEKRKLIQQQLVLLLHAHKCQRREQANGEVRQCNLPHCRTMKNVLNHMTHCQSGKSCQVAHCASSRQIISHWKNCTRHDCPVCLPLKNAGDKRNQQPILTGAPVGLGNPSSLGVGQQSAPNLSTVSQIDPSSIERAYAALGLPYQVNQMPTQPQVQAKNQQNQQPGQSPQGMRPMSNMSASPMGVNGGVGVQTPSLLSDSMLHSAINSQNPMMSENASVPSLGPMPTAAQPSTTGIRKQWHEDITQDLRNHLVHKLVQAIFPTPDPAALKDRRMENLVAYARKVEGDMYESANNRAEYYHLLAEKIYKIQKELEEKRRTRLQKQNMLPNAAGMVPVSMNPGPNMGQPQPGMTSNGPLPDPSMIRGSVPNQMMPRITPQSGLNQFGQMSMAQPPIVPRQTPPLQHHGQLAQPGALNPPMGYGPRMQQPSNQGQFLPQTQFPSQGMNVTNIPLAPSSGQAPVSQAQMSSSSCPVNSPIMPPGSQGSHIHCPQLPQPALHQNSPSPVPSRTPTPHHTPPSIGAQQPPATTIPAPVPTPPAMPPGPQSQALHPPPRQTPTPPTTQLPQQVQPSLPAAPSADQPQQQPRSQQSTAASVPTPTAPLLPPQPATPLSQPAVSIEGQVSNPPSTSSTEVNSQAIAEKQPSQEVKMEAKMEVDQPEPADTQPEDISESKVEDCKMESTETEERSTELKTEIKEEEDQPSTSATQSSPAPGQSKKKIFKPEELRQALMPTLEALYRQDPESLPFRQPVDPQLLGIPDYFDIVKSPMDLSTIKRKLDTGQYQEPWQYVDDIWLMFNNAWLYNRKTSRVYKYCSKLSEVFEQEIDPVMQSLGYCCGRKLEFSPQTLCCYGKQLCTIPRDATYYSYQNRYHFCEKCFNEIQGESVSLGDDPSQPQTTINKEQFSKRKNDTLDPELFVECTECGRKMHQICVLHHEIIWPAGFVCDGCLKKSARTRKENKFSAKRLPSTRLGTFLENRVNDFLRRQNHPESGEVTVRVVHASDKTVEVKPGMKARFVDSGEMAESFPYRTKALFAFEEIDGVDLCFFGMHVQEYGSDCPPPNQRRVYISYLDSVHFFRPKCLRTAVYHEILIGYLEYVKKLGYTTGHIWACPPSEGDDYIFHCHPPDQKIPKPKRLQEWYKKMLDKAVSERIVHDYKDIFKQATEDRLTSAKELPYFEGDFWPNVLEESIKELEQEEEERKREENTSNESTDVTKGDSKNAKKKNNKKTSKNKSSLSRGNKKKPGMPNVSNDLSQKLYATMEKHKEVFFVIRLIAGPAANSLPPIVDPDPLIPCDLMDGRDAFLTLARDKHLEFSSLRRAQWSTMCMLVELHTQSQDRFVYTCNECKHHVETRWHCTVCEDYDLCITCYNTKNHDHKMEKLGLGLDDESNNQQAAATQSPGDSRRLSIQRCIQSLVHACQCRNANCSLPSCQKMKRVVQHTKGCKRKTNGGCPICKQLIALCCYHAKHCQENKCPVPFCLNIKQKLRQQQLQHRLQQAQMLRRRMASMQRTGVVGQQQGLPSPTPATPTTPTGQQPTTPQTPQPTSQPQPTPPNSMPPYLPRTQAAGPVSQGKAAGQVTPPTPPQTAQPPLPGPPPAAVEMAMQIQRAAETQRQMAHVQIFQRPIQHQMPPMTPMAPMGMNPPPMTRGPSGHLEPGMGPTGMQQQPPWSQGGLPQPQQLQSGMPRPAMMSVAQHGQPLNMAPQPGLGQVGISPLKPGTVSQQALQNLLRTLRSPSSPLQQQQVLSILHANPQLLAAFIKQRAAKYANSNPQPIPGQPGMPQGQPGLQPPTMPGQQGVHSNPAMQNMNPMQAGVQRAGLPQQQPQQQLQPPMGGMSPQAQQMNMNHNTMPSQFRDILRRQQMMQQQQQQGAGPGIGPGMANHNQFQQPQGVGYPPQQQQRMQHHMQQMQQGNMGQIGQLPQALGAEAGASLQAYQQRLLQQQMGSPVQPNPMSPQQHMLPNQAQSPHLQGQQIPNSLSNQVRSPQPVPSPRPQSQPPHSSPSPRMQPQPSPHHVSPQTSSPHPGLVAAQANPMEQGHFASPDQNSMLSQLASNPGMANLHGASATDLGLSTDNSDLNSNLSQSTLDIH

Structure (SMILES)	Dmax [1] [%]	DC50 [1] [nM]	DC50 [2] [nM]	Dmax [2] [%]
CC(C)c1cc(-c2cccc3cc(-c4ccc(C(=O)NCC#Cc5oc6c(C7CCC(=O)NC7=O)cccc6c5F)nc4)ncc23)cc2c1n(C)c(=O)n2C (centres unmarked) [Example A191, N-(3-(7-(2,6-dioxo-piperidin-3-yl)-3-fluorobenzofuran-2-yl)prop-2-yn-1-yl)-5-(8-(7-isopropyl-1,3-dimethyl-2-oxo-2,3-dihydro-1H-benzo [d]imidazol-5-yl)isoquinolin-3-yl)picolinamide]	> 80	10 to 99	> 1000	< 20
CN1CCN(c2nc(-c3cccc4cc(-c5ccc(C(=O)NCC#Cc6ccc7occ(C8CCC(=O)NC8=O)c7c6)nc5)ncc34)cc3c2n(C)c(=O)n3C)CC1 (centres unmarked) [Example A102, 5-(8-(1,3-dimethyl-4-(4-methylpiperazin-1-yl)-2-oxo-2,3-dihydro-1H-imidazo[4,5-c]pyridin-6-yl)iso-quinolin-3-yl)-N-(3-(3-(2,6-dioxopiperidin-3-yl)benzofuran-5-yl)prop-2-yn-1-yl) picolinamide]	> 80	< 1	> 1000	< 20
CC(C)c1cc(-c2cccc3cc(-c4ccc(C(=O)NCC#Cc5cccc(NC67CC(C6)C(=O)NC7=O)c5)nc4)ncc23)cc2c1n(C)c(=O)n2C [Example A2, N-(3-(3-((2,4-Dioxo-3-azabicyclo[3.1.1]heptan-1-yl)amino)phenyl)prop-2-yn-1-yl)-5-(8-(7-isopropyl-1,3-dimethyl-2-oxo-2,3-dihydro-1H-benzo[d]imidazol-5-yl)isoquinolin-3-yl)picolinamide]	> 80	10 to 99	> 1000	< 20
Cn1c(=O)n(C)c2c(N3CCC(O)CC3)nc(-c3cccc4cc(-c5ccc(C(=O)NCC#Cc6ccc7occ(C8CCC(=O)NC8=O)c7c6)nc5)ncc34)cc21 (centres unmarked) [Example A124, N-(3-(3-(2,6-dioxo-piperidin-3-yl)benzofuran-5-yl)prop-2-yn-1-yl)-5-(8-(4-(4-hydroxypiperidin-1-yl)-1,3-dimethyl-2-oxo-2,3-dihydro-1H-imidazo[4,5-c]pyridin-6-yl)isoquinolin-3-yl)picolinamide]	> 80	< 1	> 1000	< 20
Cc1cc(-c2cc3cccc(-c4ccc5c(c4)n(C)c(=O)n5C)c3cn2)cnc1C(=O)NCC#Cc1ccc2occ(C3CCC(=O)NC3=O)c2c1 (centres unmarked) [Example A155, 5-(8-(1,3-dimethyl-2-oxo-2,3-dihydro-1H-benzo[d]imidazol-5-yl)isoquinolin-3-yl)-N-(3-(3-(2,6-dioxo-piperidin-3-yl)benzofuran-5-yl)prop-2-yn-1-yl)-3-methylpicolinamide]	> 80	1 to 9.9	> 1000	< 20
CC(C)c1cc(-c2cccc3cc(-c4ccc(C(=O)NCC#Cc5ccc6occ(C78CC(C7)C(=O)NC8=O)c6c5)nc4)ncc23)cc2c1n(C)c(=O)n2C [Example A212, N-(3-(3-(2,4-dioxo-3-azabicyclo[3.1.1]heptan-1-yl)benzofuran-5-yl)prop-2-yn-1-yl)-5-(8-(7-isopropyl-1,3-dimethyl-2-oxo-2,3-dihydro-1H-benzo[d]imidazol-5-yl)isoquinolin-3-yl)picolinamide]	> 80	1 to 9.9	> 1000	< 20
CC(C)c1cc(C2CC(C)(C)Oc3cc(-c4ccc(C(=O)NCC#Cc5ccc6occ(C7CCC(=O)NC7=O)c6c5)nc4)ncc32)cc2c1n(C)c(=O)n2C (centres unmarked) [Example A83, N-(3-(3-(2,6-dioxo-piperidin-3-yl)benzofuran-5-yl)prop-2-yn-1-yl)-5-(4-(7-isopropyl-1,3-dimethyl-2-oxo-2,3-dihydro-1H-benzo [d]imidazol-5-yl)-2,2-dimethyl-3,4-dihydro-2H-pyrano[3,2-c]pyridin-7-yl) picolinamide]	> 80	1 to 9.9	> 1000	< 20
Cc1cc(-c2cc3cccc(-c4ccc5c(c4)n(C)c(=O)n5C)c3cn2)cnc1C(=O)NCC#Cc1cc2c([C@H]3CCC(=O)NC3=O)cccc2o1 [Example A181, (R)-5-(8-(1,3-dimethyl-2-oxo-2,3-dihydro-1H-benzo [d]imidazol-5-yl)isoquinolin-3-yl)-N-(3-(4-(2,6-dioxopiperidin-3-yl)benzofuran-2-yl)prop-2-yn-1-yl)-3-methylpicolinamide]	> 80	1 to 9.9	100 to 999	< 20
Cc1cc(-c2cc3cccc(-c4cc(C)c5c(c4)n(C)c(=O)n5C)c3cn2)cnc1C(=O)NCC#Cc1ccc2occ(C3CCC(=O)NC3=O)c2c1 (centres unmarked) [Example A87, N-(3-(3-(2,6-dioxo-piperidin-3-yl)benzofuran-5-yl)prop-2-yn-1-yl)-3-methyl-5-(8-(1,3,7-trimethyl-2-oxo-2,3-dihydro-1H-benzo [d]imidazol-5-yl)isoquinolin-3-yl)picolinamide]	> 80	1 to 9.9	> 1000	< 20
CN1CCN(c2ccc3c(c2)n(C)c(=O)n3C)c2cnc(-c3ccc(C(=O)NCC#Cc4ccc5occ(C6CCC(=O)NC6=O)c5c4)nc3)cc21 (centres unmarked) [Example A139, 5-(4-(1,3-dimethyl-2-oxo-2,3-dihydro-1H-benzo[d]imidazol-5-yl)-1-methyl-1,2,3,4-tetrahydropyrido[3,4-b]pyrazin-7-yl)-N-(3-(3-(2,6-dioxo-piperidin-3-yl)benzofuran-5-yl)prop-2-yn-1-yl)picolinamide]	> 80	< 1	> 1000	< 20

Second part, the compound after the results:

Dmax [1] [%]	DC50 [1] [nM]	DC50 [2] [nM]	Dmax [2] [%]	Structure (SMILES)
> 80	1 to 9.9	1 to 9.9	60 to 79	Cc1cc(-c2cc3cccc(-c4nc(N5CCOCC5)cc5c4cc(C)c(=O)n5C)c3cn2)cnc1C(=O)NCC#Cc1cc2c(C3CCC(=O)NC3=O)cccc2o1 (centres unmarked) [Example B167, 5-(8-(1,3-dimethyl-7-morpholino-2-oxo-1,2-dihydro-1,6-naphthyridin-5-yl)isoquinolin-3-yl)-N-(3-(4-(2,6-dioxopiperidin-3-yl)benzofuran-2-yl)prop-2-yn-1-yl)-3-methylpicolinamide]
> 80	1 to 9.9	> 1000	< 20	Cc1cc2c(N3CCCc4nc(-c5ccc(C(=O)NCC#Cc6ccc7occ(C8CCC(=O)NC8=O)c7c6)nc5)ncc43)cccc2n(C)c1=O (centres unmarked) [Example B110, 5-(5-(1,3-dimethyl-2-oxo-1,2-dihydroquinolin-5-yl)-5,6,7,8-tetrahydropyrido[3,2-d]pyrimidin-2-yl)-N-(3-(3-(2,6-dioxopiperidin-3-yl)benzofuran-5-yl)prop-2-yn-1-yl)picolinamide]
20 to 39	1 to 9.9	> 1000	< 20	CCc1cc(-c2cccc3cc(-c4ccc(C(=O)NCC#Cc5cc(NC6CCC(=O)NC6=O)nn5C)nc4)ncc23)c2cc(C)c(=O)n(C)c2c1 (centres unmarked) [Example B7, N-(3-(3-((2,6-Dioxopiperidin-3-yl)amino)-1-methyl-1H-pyrazol-5-yl)prop-2-yn-1-yl)-5-(8-(7-ethyl-1,3-dimethyl-2-oxo-1,2-dihydroquinolin-5-yl)isoquinolin-3-yl)picolinamide]
60 to 79	1 to 9.9	> 1000	< 20	Cc1cc2c(N3CCCc4nc(-c5ccc(C(=O)NCC#Cc6cc7c(C8CCC(=O)NC8=O)nccc7n6C)nc5)ncc43)cc(C3CCOCC3)cc2n(C)c1=O (centres unmarked) [Example B136, 5-(5-(1,3-dimethyl-2-oxo-7-(tetrahydro-2H-pyran-4-yl)-1,2-dihydroquinolin-5-yl)-5,6,7,8-tetrahydropyrido[3,2-d]pyrimidin-2-yl)-N-(3-(4-(2,6-dioxopiperidin-3-yl)-1-methyl-1H-pyrrolo[3,2-c]pyridin-2-yl)prop-2-yn-1-yl) picolinamide]
> 80	10 to 99	> 1000	< 20	Cc1cc2c(N3CCCc4nc(-c5ccc(C(=O)NCC#Cc6cc7c(C8CCC(=O)NC8=O)cccc7o6)nc5)ncc43)cc(C3CCC3)nc2n(C)c1=O (centres unmarked) [Example B164, 5-(5-(2-cyclobutyl-6,8-dimethyl-7-oxo-7,8-dihydro-1,8-naphthyridin-4-yl)-5,6,7,8-tetra-hydropyrido[3,2-d]pyrimidin-2-yl)-N-(3-(4-(2,6-dioxopiperidin-3-yl)benzofuran-2-yl)prop-2-yn-1-yl)picolinamide]
60 to 79	1 to 9.9	> 1000	< 20	Cc1cc(-c2ncc3c(n2)CCCN3c2cc(C3CCOCC3)cc3c2cc(C)c(=O)n3C)cnc1C(=O)NCC#Cc1ccc2occ(C3CCC(=O)NC3=O)c2c1 (centres unmarked) [Example B42, 5-(5-(1,3-dimethyl-2-oxo-7-(tetrahydro-2H-pyran-4-yl)-1,2-dihydroquinolin-5-yl)-5,6,7,8-tetrahydropyrido[3,2-d]pyrimidin-2-yl)-N-(3-(3-(2,6-dioxopiperidin-3-yl)benzofuran-5-yl)prop-2-yn-1-yl)-3-methylpicolinamide]
> 80	< 1	> 1000	< 20	Cc1cc2c(N3CCCc4nc(-c5ccc(C(=O)NCC#Cc6ccc7occ(C8CCC(=O)NC8=O)c7c6)nc5)ncc43)cc(C3CCOCC3)cc2n(C)c1=O (centres unmarked) [Example B53, 5-(5-(1,3-dimethyl-2-oxo-7-(tetrahydro-2H-pyran-4-yl)-1,2-dihydroquinolin-5-yl)-5,6,7,8-tetrahydropyrido[3,2-d]pyrimidin-2-yl)-N-(3-(3-(2,6-dioxopiperidin-3-yl)benzofuran-5-yl)prop-2-yn-1-yl)picolinamide]
